Test results reported in PMC8119466, “A screen of FDA-approved drugs identifies inhibitors of protein tyrosine phosphatase 4A3 (PTP4A3 or PRL-3)” (Scientific Reports, 2021).
Structures can show the parent of a compound that is named as a salt.

What was measured:
Format in all cases: biochemical
Conditions in all cases: FDA-approved drug screen
recombinant PRL-1 = molecular target: T1, recombinant PRL-1 (Homo sapiens, UniProt Q93096); assay: In vitro phosphatase assay (DiFMUP hydrolysis), PRL-1; also: test concentration or dose not given here
T1 construct: 6xHis (N, cleaved yes); made in house; host or cells: E. coli One Shot BL21 Star
T1 sequence (Q93096 1-173): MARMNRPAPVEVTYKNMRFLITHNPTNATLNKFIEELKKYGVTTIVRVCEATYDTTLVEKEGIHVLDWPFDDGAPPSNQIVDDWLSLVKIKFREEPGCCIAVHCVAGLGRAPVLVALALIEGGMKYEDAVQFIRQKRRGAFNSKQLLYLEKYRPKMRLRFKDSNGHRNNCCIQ

recombinant PRL-2 = molecular target: T2, recombinant PRL-2 (Homo sapiens, UniProt Q12974); assay: In vitro phosphatase assay (DiFMUP hydrolysis), PRL-2;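 also: PRL-2 activity read as DiFMUP hydrolysis after 20 min at room temperature with drug, enzyme first pre-reduced at 4 °C for 20 min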
T2 construct: 6xHis (N, cleaved yes); made in house; host or cells: E. coli One Shot BL21 Star
T2 sequence (Q12974 1-167): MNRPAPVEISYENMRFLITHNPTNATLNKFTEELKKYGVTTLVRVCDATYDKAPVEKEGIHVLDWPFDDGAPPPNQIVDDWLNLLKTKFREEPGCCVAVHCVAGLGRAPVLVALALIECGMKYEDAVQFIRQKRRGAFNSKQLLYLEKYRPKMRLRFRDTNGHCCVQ

recombinant PRL-3 = molecular target: T3, recombinant PRL-3 (Homo sapiens, UniProt O75365); assay: In vitro phosphatase assay (DiFMUP hydrolysis), PRL-3; also: test concentration or dose not given here
T3 construct: 6xHis (N, cleaved yes); made in house; host or cells: E. coli One Shot BL21 Star
T3 sequence (O75365 whole entry): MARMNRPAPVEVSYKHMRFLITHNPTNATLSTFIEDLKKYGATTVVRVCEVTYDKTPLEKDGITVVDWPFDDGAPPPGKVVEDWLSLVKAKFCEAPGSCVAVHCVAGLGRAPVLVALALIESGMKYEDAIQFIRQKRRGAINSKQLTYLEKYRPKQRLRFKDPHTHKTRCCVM

% Phosphatase Activity (compared to DMSO) PRL-1 (recombinant PRL-1; activity compared to DMSO) [%] | % Phosphatase Activity (compared to DMSO) PRL-2 (recombinant PRL-2; activity compared to DMSO) [%] | % Phosphatase Activity (compared to DMSO) PRL-3 (recombinant PRL-3; activity compared to DMSO) [%] | Compound | % Phosphatase Activity (compared to DMSO) PRL-1 (recombinant PRL-1; compared to DMSO) [%] | % Phosphatase Activity (compared to DMSO) PRL-2 (recombinant PRL-2; compared to DMSO) [%] | % Phosphatase Activity (compared to DMSO) PRL-3 (recombinant PRL-3; compared to DMSO) [%]
– | – | – | CCOc1cc([C@@H](CS(C)(=O)=O)N2C(=O)c3cccc(NC(C)=O)c3C2=O)ccc1OC [Apremilast (CC-10004)] | 100 | 78 | 86
78 | 77 | 46 | CC1=C(/C=C/C(C)=C/C=C/C(C)=C/C(=O)O)C(C)(C)CCC1 [Tretinoin] | – | – | –
– | – | – | CN(Cc1ccc(C(C)(C)C)cc1)Cc1cccc2ccccc12 [Butenafine HCl] | 117 | 112 | 88
– | – | – | CCOc1cc2ncc(C#N)c(Nc3ccc(F)c(Cl)c3)c2cc1NC(=O)/C=C/CN(C)C [Pelitinib (EKB-569)] | 111 | 120 | 97
104 | 90 | 88 | Cc1cn([C@H]2C=C[C@@H](CO)O2)c(=O)[nH]c1=O [Stavudine (d4T)] | – | – | –
– | – | – | N#CC(c1ccc(Cl)cc1)c1c(Cl)cc(-n2ncc(=O)[nH]c2=O)cc1Cl (stereo not drawn) [Diclazuril] | 79 | 112 | 80
95 | 100 | 90 | Teneligliptin hydrobromide | – | – | –
– | – | – | C#Cc1cccc(Nc2ncnc3cc(OCCOC)c(OCCOC)cc23)c1.Cl [Erlotinib HCl (OSI-744)] | 110 | 128 | 87
– | – | – | CC(O)(P(=O)(O)O)P(=O)(O)O [Etidronate] | 102 | 100 | 91
– | – | – | CCCCOc1cc(C(=O)NCCN(CC)CC)c2ccccc2n1 [Dibucaine HCl] | 110 | 108 | 101
– | – | – | O=C(CCCCCCNC(=O)c1cnc(N(c2ccccc2)c2ccccc2)nc1)NO [Rocilinostat (ACY-1215)] | 102 | 98 | 97
– | – | – | C[C@]12CC[C@H](O)CC1=CC[C@@H]1[C@@H]2CC[C@]2(C)C(n3cnc4ccccc43)=CC[C@@H]12 [Galeterone] | 90 | 98 | 96
– | – | – | C[C@H]1CNCCCN1S(=O)(=O)c1cccc2cncc(F)c12 [Ripasudil (K-115)] | 95 | 94 | 96
– | – | – | CN1CCN(C2=Nc3ccccc3Oc3ccc(Cl)cc32)CC1 [Loxapine Succinate] | 96 | 110 | 90
– | – | – | Cl.NCC(O)c1ccc(O)cc1 (racemic) [(+,-)-Octopamine HCl] | 110 | 102 | 78
– | – | – | CC1CC(OC(=O)C(O)c2ccccc2)CC(C)(C)C1 (stereo not drawn) [Cyclandelate] | 82 | 84 | 74

Compound | % Phosphatase Activity (compared to DMSO) PRL-1 (recombinant PRL-1; activity compared to DMSO) [%] | % Phosphatase Activity (compared to DMSO) PRL-2 (recombinant PRL-2; activity compared to DMSO) [%] | % Phosphatase Activity (compared to DMSO) PRL-3 (recombinant PRL-3; activity compared to DMSO) [%] | % Phosphatase Activity (compared to DMSO) PRL-1 (recombinant PRL-1; compared to DMSO) [%] | % Phosphatase Activity (compared to DMSO) PRL-2 (recombinant PRL-2; compared to DMSO) [%] | % Phosphatase Activity (compared to DMSO) PRL-3 (recombinant PRL-3; compared to DMSO) [%]
COCC[n+]1c2c(n(Cc3cnccn3)c1C)C(=O)c1ccccc1C2=O.[Br-] [YM155 (Sepantronium Bromide)] | 11 | 13 | 5 | – | – | –
Cn1c(=O)cc(N2CCC[C@@H](N)C2)n(Cc2cc(F)ccc2C#N)c1=O [Trelagliptin] | 106 | 76 | 107 | – | – | –
